# Source: patent US9440981B2, “Pyrrolo[2, 1-F] [1,2,4]triazine derivative and use thereof for treating tumors” (PHARMABLOCK (NANJING) R&D CO. LTD., priority 2012, dated 2016)
# How the values were obtained:
# Format in all cases: cell-based
# [1] = system: human prostatic cancer cell line PC-3; test: MTT assay, growth inhibition of PC-3 cells; settings: 96-hr culture, read-out: IC50 ± SD, PC-3
# Protocol: (§1) The inhibition of the compounds of the present invention on growth of a variety of human tumor cell lines is evaluated by MTT assay.
# (§2) Method: cells in exponential phase (human gastric cancer cell line SGC-7901, human non-small cell lung cancer cell line A549, human breast cancer cell line BT-549, human prostatic cancer cell line PC-3, human colon cancer cell line HT-29, and human liver cancer cell line SMMC-7721) are seeded at a density of 1.5×10^4 in a 96-well plate. After 24-hr culture, the cells are grown to confluent and the previous culture medium is aspirated. The test includes a control group, and a treatment group. In the control group, a 1640 medium containing 10% fetal bovine serum is replenished; and in the treatment group, a medium containing 100 μM, 50 μM, 10 μM, 1 μM, 0.1 μM, 0.01 μM, 0.001 μM, 0.0001 μM, and 0.00001 μM test compound is replenished. After 96-hr culture, 5 mg/mL MTT is added, and cultured in a CO2 incubator for another 4 hrs. Then, 100 μL of the supernatant is aspirated from the upper portion of the culture medium, and placed in the dark for 10 min after 100 μL DMSO is added. The absorbance (at 570 nm) is measured on a microplate reader (available from Sunrise Co., Ltd.), and the cell viability is calculated from the absorbance. 6 replicate wells are set for each treatment. Cell viability (%)=ΔODtreatment/ΔODcontrol×100.
# (§3) The ID50 values of six compounds for inhibiting the growth of numerous human tumor cell lines are calculated by Sigmaplot 10.0 software and are shown in Table 1.
# [2] = system: human liver cancer cell line SMMC-7721; test: MTT assay, growth inhibition of SMMC-7721 cells; settings: 96-hr culture, read-out: IC50 ± SD, SMMC-7721
# Protocol: as §1, §2, §3
# [3] = system: human breast cancer cell line BT-549; test: MTT assay, growth inhibition of BT-549 cells; settings: 96-hr culture, read-out: IC50 ± SD, BT-549
# Protocol: as §1, §2, §3
# [4] = system: human gastric cancer cell line SGC-7901; test: MTT assay, growth inhibition of SGC-7901 cells; settings: 96-hr culture, read-out: IC50 ± SD, SGC-7901
# Protocol: as §1, §2, §3
# [5] = system: human colon cancer cell line HT-29; test: MTT assay, growth inhibition of HT-29 cells; settings: 96-hr culture, read-out: IC50 ± SD, HT-29
# Protocol: as §1, §2, §3
# [6] = system: human non-small cell lung cancer cell line A549; test: MTT assay, growth inhibition of A549 cells; settings: 96-hr culture, read-out: IC50 ± SD, A549
# Protocol: as §1, §2, §3
IC50 [1] [nM],IC50 [2] [nM],IC50 [3] [nM],IC50 [4] [nM],IC50 [5] [nM],IC50 [6] [nM],Compound
510 ± 60,1690 ± 180,1270 ± 80,2150 ± 140,990 ± 40,2610 ± 340,CS(=O)(=O)N1CCN(Cc2cc3c(N4CCOCC4)nc(-c4cccc5[nH]ccc45)nn3c2)CC1 [Compound I-1]
440 ± 80,2530 ± 1490,350 ± 150,1350 ± 280,160 ± 30,2950 ± 450,CS(=O)(=O)N1CCN(Cc2cc3c(N4CCOCC4)nc(-c4cccc5[nH]ncc45)nn3c2)CC1 [Compound I-2]
780 ± 360,1720 ± 70,1990 ± 70,2520 ± 60,960 ± 310,2730 ± 520,CS(=O)(=O)N1CCN(Cc2cc3c(N4CCOCC4)nc(-c4ccnc5[nH]ccc45)nn3c2)CC1 [Compound I-3]
1170 ± 140,630 ± 110,610 ± 70,830 ± 30,1210 ± 40,620 ± 60,CS(=O)(=O)N1CCN(Cc2cc3c(N4CCOCC4)nc(-c4cnc(N)nc4)nn3c2)CC1 [Compound I-4]
220 ± 10,2150 ± 190,590 ± 220,3350 ± 460,730 ± 20,1960 ± 330,CS(=O)(=O)N1CCN(C(=O)c2cc3c(N4CCOCC4)nc(-c4cccc5[nH]ncc45)nn3c2)CC1 [Compound I-5]
1050 ± 640,1840 ± 320,2600 ± 670,1010 ± 20,2150 ± 190,1350 ± 280,CC(C)(O)c1cc2c(N3CCOCC3)nc(-c3cccc4[nH]ncc34)nn2c1 [Compound I-6]
290 ± 130,1630 ± 390,340 ± 40,2390 ± 480,470 ± 90,1930 ± 230,CCS(=O)(=O)N1CCN(Cc2cc3c(N4CCOCC4)nc(-c4cnc(N)nc4)nn3c2)CC1 [Compound I-7]
140 ± 90,1280 ± 230,110 ± 20,1420 ± 230,290 ± 50,1030 ± 140,CC(=O)N1CCN(Cc2cc3c(N4CCOCC4)nc(-c4cnc(N)nc4)nn3c2)CC1 [Compound I-8]
930 ± 180,3140 ± 380,410 ± 110,2510 ± 350,870 ± 160,3210 ± 380,Nc1ncc(-c2nc(N3CCOCC3)c3cc(CN4CCN(C(=O)C5CC5)CC4)cn3n2)cn1 [Compound I-9]
200 ± 110,1050 ± 240,130 ± 30,1290 ± 140,310 ± 80,1480 ± 190,C[C@H](O)C(=O)N1CCN(Cc2cc3c(N4CCOCC4)nc(-c4cnc(N)nc4)nn3c2)CC1 [Compound I-10]
250 ± 120,2050 ± 280,290 ± 130,1490 ± 150,850 ± 180,1500 ± 200,C[C@@H](O)C(=O)N1CCN(Cc2cc3c(N4CCOCC4)nc(-c4cnc(N)nc4)nn3c2)CC1 [Compound I-11]
220 ± 20,2450 ± 190,590 ± 220,9370 ± 1430,780 ± 20,1980 ± 340,"CS(=O)(=O)N1CCN(Cc2cc3nc(-c4cccc5[nH]ncc45)nc(N4CCOCC4)c3s2)CC1 [GDC-0941, reference compound]"
